Laboratory results published in patent publication US10457710B2, “Antimicrobial peptides, their variants and uses” (priority 2015, dated 2019).
Where a SMILES comes first, the peptide text is derived from it. Where no end group is shown, it is not given here. [ ]: non-standard residue; d: D form.

What was measured:
human erythrocytes = assay type: cell-based
Protocol: In hemolysis assays, the ability of peptides at 128 μg/ml concentration to lyse human erythrocytes to release hemoglobin was measured. The peptides described here preferably have low hemolytic activity (0.2 to 3.8% hemolysis) in mammal body. […] These peptides are useful as antimicrobial drugs as they show little or no side effects at concentrations needed to kill bacteria.
Minimum inhibition concentrations (MICs) were tested by microbroth dilution method and Chain 104, 105 and 109 inhibited the growth of Escherichia coli (ATCC 25922), Staphylococcus aureus (ATCC 25923), Klebsiella pneumoniae (ATCC 10031) and Pseudomonas aeruginosa (ATCC 27853) between 1-8 μg/ml respectively (Tables 3a, 3b and 3c). The membranolytic activities of the peptides were tested by measuring the release of hemoglobin from erythrocytes of fresh blood donated by voluntiers. Hemoglobin levels were determined spectrometrically by taking OD at 540 nm by following the protocol of Schmidtchen et al., 2011.

[1] = pH 4 to 9, activity by RDA
Protocol: FIG. 9a. pH stability of chain peptides 104 and 105 was determined by radial diffusion assay (RDA). Different pH ranging from 4-9 was used to check the zone of inhibition.
(§1) Thermal stability was evaluated by diluting peptides to the concentration of 2 mg/ml in PBS buffer (pH 7.4) and incubating at different temperatures, such as +4° C., 25° C. (RT), 37° C. and 45° C., peptides stored at −20° C. were used as control. After each time interval, 100 μl (2 mg/ml) of peptides were taken and stored at −20° C. for radial diffusion assay to determine the antibacterial activity (FIG. 8). Peptides were also tested by diluting them at different pH values starting from pH 4 to 9. The effect of NaCl on the antimicrobial activity was tested by adding different concentrations (50, 100 and 200 mM) of NaCl to MH medium and the minimum inhibitory concentrations were tested against 4 ATCC bacterial strains.

[2] = +4, 25, 37 and 45° C., 14 days, PBS pH 7.4, activity by RDA
Protocol: FIG. 8a. […] Antibacterial activity was tested by aliquoting 20 μg of peptides incubated at different temperature and activity was measured by zone of inhibition. Peptides at −20° C. served as control.
as §1

S. aureus RN4220 = assay type: cell-based; details: antibiotic sensitive strain S. aureus RN4220
Protocol: Minimum inhibition concetrations (MICs) were determined against Escherichia coli (ATCC 25922), Staphylococcus aureus (ATCC 25923), Klebsiella pneumoniae (ATCC 10031) and Pseudomonas aeruginosa (ATCC 27853). Also clinical strains of E. coli, K. pneumoniae, E. cloacae, P. aeruginosa, Serratia marcescens, Proteus mirabilis, S. pneumoniae, Acinetobacter baumannii, A. johnsonii and S. aureus were used for MICs assays. Additionally, clinical strains of yeast including Candida albicans, C. glabrata, C. parapsilosis and C. quillermondiae were used. The susceptibility of these microorganisms to Chain peptides were determined using micro broth dilution assay. Colonies of the respective microorganism from Muller Hinton (MH) agar plates incubated overnight were suspended in MH broth media and final concentration of microorganism was adjusted to 5.0×10^5 cfu/ml. An aliquot of 10 μl of each Chain peptide, or gentamicin, tetracycline as reference antibiotics were added in differing concentrations along with 90 μl of bacterial suspension to 96 well polypropylene plates and incubated at 37° C. for 20 to 24 hours. Concentrations of Chain peptides and reference antibiotics ranged from 0.125 to 128 μg/ml and the MICs were recorded as the lowest concentration with no visual growth of bacteria. Similarly, antifungal MICs were tested in Potato dextrose broth.
(§2) Peptides Chain 104, Chain 105, Chain 201, Chain 308, Chain 310 were tested against antibiotic-sensitive strains of S. aureus RN4220 and methicillin resistant strains of S. aureus COL (MRSA). Chain peptides comprising of either L- or D-form amino acids were tested against these bacteria, and the D-form peptides were found have better activity compared to L-form (Table 6). Synergistic activity of chain peptides along with Ertapenem (4 μg/ml) was tested to know whether it will influence the activity against MRSA strains. […] Chain 310 has the best antibacterial activity against the MRSA strains with a MIC of 0.06 & 0.03 μg/ml along with Ertapenem (4 μg/ml) for both forms of L and D-peptides (Table 6).

MRSA strains = experiment: MIC, synergistic activity with Ertapenem (4 μg/ml); assay type: cell-based, S. aureus; details: S. aureus COL with 4 μg/ml Ertapenem (synergistic activity)
Protocol: as §2

Row | Compound | side effects to humans as tested by hemolysis assay (human erythrocytes) | pH stability [1] | thermostability [2] | Minimum inhibitory concentration (MICs), S. aureus RN4220 (S. aureus RN4220) [µg/mL] | Minimum inhibitory concentration (MICs), S. aureus COL + 4 μg/ml Ertapenem (MRSA strains) [µg/mL]
1 | RLKWFWLFRKR [Chain307] | little side effects to humans |  |  |  | 
2 | KRKWRWLFKKL [Chain310] | little side effects to humans |  |  |  | 
3 | RLKWFLLFRKR [Chain308] | little side effects to humans | not hindered by pH | not hindered by pH or temperature even upto 45 °C for over 14 days |  | 
4 | RLKRWRLFRKR [Chain306] |  | not hindered by pH | not hindered by pH or temperature even upto 45 °C for over 14 days |  | 
5 | KWIVWRWRFKR [Chain201] | little side effects to humans | not hindered by pH | not hindered by pH or temperature even upto 45 °C for over 14 days |  | 
6 | CC[C@@H](C)[C@@H](NC(=O)[C@@H](Cc1c[nH]c2ccccc12)NC(=O)[C@H](N)CCCCN)C(=O)N[C@@H](C(=O)N[C@H](Cc1c[nH]c2ccccc12)C(=O)N[C@H](CCCNC(=N)N)C(=O)N[C@H](Cc1c[nH]c2ccccc12)C(=O)N[C@H](CCCNC(=N)N)C(=O)N[C@H](Cc1ccccc1)C(=O)N[C@H](CCCCN)C(=O)N[C@H](CCCNC(=N)N)C(=O)O)C(C)C [201 D] (H-[dK][dW][dI][dV][dW][dR][dW][dR][dF][dK][dR]-OH) |  |  |  | 2 | 1
7 | KRKWRWLFKKL [Compound 310] |  |  |  | >64 | 0.06
8 | RKWRAMIRLHAKWLRK [Compound 105] |  |  |  | >64 | 0.5
9 | RKWRAMIRLHAKRLRK [Chain104] | little side effects to humans | not hindered by pH | not hindered by pH or temperature even upto 45 °C for over 14 days |  | 
10 | RKWRAMIRLHAKWLRK [Chain105] | little side effects to humans | not hindered by pH | not hindered by pH or temperature even upto 45 °C for over 14 days |  | 
11 | KWIVWRWRFKR [Compound 201] |  |  |  | 64 | 0.5
12 | WWRLHAKWKLW [Chain109] | little side effects to humans |  |  |  | 
13 | RLKWFLLFRKR [Compound 308] |  |  |  | >64 | 0.5
14 | CC(C)C[C@@H](NC(=O)[C@@H](CCCCN)NC(=O)[C@@H](CCCCN)NC(=O)[C@@H](Cc1ccccc1)NC(=O)[C@@H](CC(C)C)NC(=O)[C@@H](Cc1c[nH]c2ccccc12)NC(=O)[C@@H](CCCNC(=N)N)NC(=O)[C@@H](Cc1c[nH]c2ccccc12)NC(=O)[C@@H](CCCCN)NC(=O)[C@@H](CCCNC(=N)N)NC(=O)[C@H](N)CCCCN)C(=O)O [310 D] (H-[dK][dR][dK][dW][dR][dW][dL][dF][dK][dK][dL]-OH) |  |  |  | >64 | <0.03
15 | CC(C)C[C@@H](NC(=O)[C@H](N)CCCNC(=N)N)C(=O)N[C@H](CCCCN)C(=O)N[C@H](Cc1c[nH]c2ccccc12)C(=O)N[C@H](Cc1ccccc1)C(=O)N[C@H](CC(C)C)C(=O)N[C@H](CC(C)C)C(=O)N[C@H](Cc1ccccc1)C(=O)N[C@H](CCCNC(=N)N)C(=O)N[C@H](CCCCN)C(=O)N[C@H](CCCNC(=N)N)C(=O)O [308 D] (H-[dR][dL][dK][dW][dF][dL][dL][dF][dR][dK][dR]-OH) |  |  |  | 4 | 1
16 | RKWRAMIRLHAKRLRK [Compound 104] |  |  |  | >64 | 0.25
